Earlier results, collected in patent US20230165842A1, “NEW USES” (priority 2020, published 2023).
pEC50, pIC50: −log10 of the molar value. Where two headings read alike, the source gives them in different places.

Assays:
SARS-CoV-2 [1] = conditions: pre-treated Vero-E6; MOI 0.01; 24 hours; p<0.001 vs DMSO
SARS-CoV-2 [2] = conditions: pre-treated A549^AcE2; MOI 0.01; 24 hours; p<0.001 vs DMSO
SARS-CoV-2 [3] = conditions: Vero E6; with reduced cytotoxicity
[4] = tested on: human coronavirus (HCoV)-229E; conditions: MRC5 cells
ACE2 = ACE2 (Homo sapiens, UniProt Q9BYF1); conditions: cell membrane chromatography and surface plasmon resonance
Sequence of ACE2 (Q9BYF1 18-805): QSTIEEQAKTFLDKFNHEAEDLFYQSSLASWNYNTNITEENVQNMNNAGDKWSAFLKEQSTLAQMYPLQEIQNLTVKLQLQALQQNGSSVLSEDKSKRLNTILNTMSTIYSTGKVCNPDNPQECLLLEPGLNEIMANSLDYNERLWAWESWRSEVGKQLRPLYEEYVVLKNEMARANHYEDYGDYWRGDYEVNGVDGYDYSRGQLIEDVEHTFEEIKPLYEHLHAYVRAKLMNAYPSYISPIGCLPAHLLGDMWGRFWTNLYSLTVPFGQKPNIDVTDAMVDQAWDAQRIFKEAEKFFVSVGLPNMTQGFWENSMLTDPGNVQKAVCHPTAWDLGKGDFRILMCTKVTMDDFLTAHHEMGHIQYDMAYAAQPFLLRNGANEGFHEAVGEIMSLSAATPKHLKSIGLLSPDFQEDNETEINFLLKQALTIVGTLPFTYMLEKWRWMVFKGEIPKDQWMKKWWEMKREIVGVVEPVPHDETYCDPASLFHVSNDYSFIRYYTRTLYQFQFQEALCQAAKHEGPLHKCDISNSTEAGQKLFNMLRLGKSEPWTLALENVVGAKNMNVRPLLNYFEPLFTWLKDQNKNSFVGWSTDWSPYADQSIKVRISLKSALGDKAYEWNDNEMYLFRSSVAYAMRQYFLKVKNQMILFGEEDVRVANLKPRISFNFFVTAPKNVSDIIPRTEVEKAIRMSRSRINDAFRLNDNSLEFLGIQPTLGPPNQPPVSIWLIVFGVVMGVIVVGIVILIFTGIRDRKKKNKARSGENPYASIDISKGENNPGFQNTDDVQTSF

[5] = tested on: SARS-CoV-2 Spike pseudotyped virus; conditions: ACE2h HEK293T cells; Control = 1
IL6 = conditions: curcumin group
IL1β = conditions: curcumin group
IL-18 and TNF-α = conditions: before and after intervention
SARS-CoV-2 [6] = conditions: 10 μM; post-infection treatment; Vero E6; MOI 1
HCoV-OC43 = conditions: Vero C1008; dose-dependent
SARS-CoV-2-Wuhan-Hu-1 = conditions: Vero C1008
SARS-CoV-2 [7] = conditions: Calu-3
SARS-CoV-2 [8] = conditions: Vero E6; for pIC50: 2 h pre-treatment, 24 h
SARS-CoV-2 [9] = conditions: virucidal activity; chlorphenamine maleate
Vero-E6 cells = conditions: read-out: CC50 in
SARS-CoV-2 [10] = conditions: with increased concentrations; vs DMSO treated group
SARS-CoV-2 [11] = conditions: Vero-E6
SARS-CoV-2 [12] = conditions: Yang et al., 2020
[13] = tested on: critically ill patients with COVID-19; conditions: compared to placebo or usual care
SARS-CoV-2 [14] = conditions: treated 24 hours prior to infection; read-out: IC50 in Vero
SARS-CoV-2 [15] = conditions: treated 24 hours prior to infection; read-out: IC50 in Calu-3

CN1CCN(CCCN2c3ccccc3Sc3ccc(C(F)(F)F)cc32)CC1 [Compound 73, trifluoperazine]
SARS-COV-2 replication (vRNA levels) (SARS-CoV-2 [1]): successfully blocked
SARS-COV-2 replication (vRNA levels) (SARS-CoV-2 [2]): successfully blocked

Oc1ccc(C=Cc2cc(O)cc(O)c2)cc1 [Compound 192, resveratrol]
viral titer on SARS-CoV-2 (SARS-CoV-2 [3]): showed a reduction of the viral titer
pEC50 [4]: 5.34
reduction of the viral titer [4]: 80%

CCOC(=O)N1CCC(=C2c3ccc(Cl)cc3CCc3cccnc32)CC1 [Compound 42, loratadine]
binding to ACE2 (ACE2): could bind to ACE2
pseudotype entry (mean) [5]: 0.7

COc1cc(/C=C/C(=O)CC(=O)/C=C/c2ccc(O)c(OC)c2)ccc1O [Compound 21, curcumin]
IL6 mRNA expression level, after (IL6; 160 mg daily for 14 days): 0.58
IL6 mRNA expression level, before (IL6; before intervention): 0.98
IL1β mRNA expression level, after (IL1β; 160 mg daily for 14 days): 0.56
IL1β mRNA expression level, before (IL1β; before intervention): 1.01
expression level of IL-18 and TNF-α (IL-18 and TNF-α): no statistically significant differences

calcitriol [Compound 142]
reduction of SARS-CoV-2 titre (SARS-CoV-2 [6]): 1.3 log 10

C[S+]([O-])CCCCN=C=S (stereo not drawn) [Compound 139, sulforaphane]
protein concentration in the bronchoalveolar lavage (BAL) (SARS-CoV-2/USA/WI1/2020; SFN daily oral gavage from one day prior to inoculation, vs untreated infected controls, P<0.0001): significantly lower
reduction in viral titers, alveolar fluid (SARS-CoV-2/USA/WI1/2020; vs untreated controls, P=0.04): 1.15 log
reduction in viral lung titers (SARS-CoV-2/USA/WI1/2020; vs untreated controls, normalized to PoI2Ra): 1.5 log
HCoV-OC43 virus-associated cell death (HCoV-OC43): effectively inhibited
cytotoxic dose TD50 (Vero C1008): 73 to 89 µM
SARS-CoV-2-Wuhan-Hu-1 virus-associated cell death (SARS-CoV-2-Wuhan-Hu-1; dose-dependent): effectively inhibited
pIC50 (SARS-CoV-2-Wuhan-Hu-1; drug 1-2 hours before inoculation): 4.92

CCOC(=O)C1=C(C)NC(C)=C(C(=O)OC)C1c1cccc(Cl)c1Cl (stereo not drawn) [Compound 30, felodipine]
CC50 (Calu-3 cells): 123 µM
SI = CC50/EC50 (SARS-CoV-2 [7]): 9784.86

CN(C)CCC(c1ccc(Cl)cc1)c1ccccn1 (stereo not drawn) [Compound 16, chlorphenamine]
Selectivity Index (SI) (SARS-CoV-2 [8]; MOI 0.004): 3.78
pIC50 (SARS-CoV-2 [8]; MOI 0.004): 5.50
Selectivity Index (SI) (SARS-CoV-2 [8]; MOI 0.01): 2.94
pIC50 (SARS-CoV-2 [8]; MOI 0.01): 5.39
CC50 (Vero E6 cells): 11.9 µM
reduction in the viral load (SARS-CoV-2 [9]): 99.7%

Nc1ccn([C@@H]2O[C@H](CO)[C@@H](O)C2(F)F)c(=O)n1 [Compound 155, gemcitabine]
CC50 (Vero-E6 cells): > 40 µM
positive cells in IFA (SARS-CoV-2 [10]): significantly decreased positive cells
SI (SARS-CoV-2 [11]): 33
pEC50 (SARS-CoV-2 [11]; MOI 0.005): 5.91

CC(CN1c2ccccc2Sc2ccccc21)N(C)C (stereo not drawn) [Compound 144, promethazine]
Selectivity Index (SI) (SARS-CoV-2 [8]; MOI 0.004): 4.62
pIC50 (SARS-CoV-2 [8]; MOI 0.004): 5.04
Selectivity Index (SI) (SARS-CoV-2 [8]; MOI 0.01): 4.08
pIC50 (SARS-CoV-2 [8]; MOI 0.01): 4.98
CC50 (Vero E6 cells; Vero E6, listed as MOI 0.004): > 42.6 µM
CC50 (Vero E6 cells; Vero E6, listed as MOI 0.01): > 42.6 µM
SARS-CoV-2 entry inhibition (SARS-CoV-2 [12]): SARS-CoV-2 entry inhibitor

C[C@]12CCC(=O)C=C1CC[C@@H]1[C@@H]2[C@@H](O)C[C@@]2(C)[C@H]1CC[C@]2(O)C(=O)CO [Compound 32, hydrocortisone]
odds ratio (OR) of mortality [13]: 0.69 (95% CI, 0.43-1.12; P = .13)

CCCCCC(=O)O[C@]1(C(C)=O)CC[C@H]2[C@@H]3CCC4=CC(=O)CC[C@]4(C)[C@H]3CC[C@@]21C [Compound 2, 17-hydroxyprogesterone-caproate]
pIC50 (SARS-CoV-2 [14]): 5.20
pIC50 (SARS-CoV-2 [15]): 5.41
